Reference: paper PMC6219798, “A novel decarboxylating amidohydrolase involved in avoiding metabolic dead ends during cyanuric acid catabolism in Pseudomonas sp. strain ADP” (PLoS ONE, 2018)

Experiments:
[1] = molecular target: T1, AtzD (Pseudomonas sp. ADP, UniProt P58329); test: UV absorbance at […] nm, ring opening; assay type: biochemical; conditions: 12 uM AtzD, 1 mM cyanuric acid
T1 construct: His6-tagged, E. coli BL21(DE3), Ni-NTA purified; cloning described elsewhere
T1 sequence (P58329 1-363): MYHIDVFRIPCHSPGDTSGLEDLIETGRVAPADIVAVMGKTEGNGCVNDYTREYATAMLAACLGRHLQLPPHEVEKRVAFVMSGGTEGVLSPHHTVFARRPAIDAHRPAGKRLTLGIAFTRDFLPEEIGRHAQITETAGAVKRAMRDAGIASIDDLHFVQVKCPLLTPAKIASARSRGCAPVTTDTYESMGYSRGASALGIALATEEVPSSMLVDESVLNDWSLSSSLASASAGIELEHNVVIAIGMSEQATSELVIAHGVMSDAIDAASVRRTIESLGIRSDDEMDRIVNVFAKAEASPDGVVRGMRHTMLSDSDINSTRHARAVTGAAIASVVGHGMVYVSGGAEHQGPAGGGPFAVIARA

[2] = molecular target: AtzH from Pseudomonas sp. strain ADP, his-tag removed (Pseudomonas sp. strain ADP); test: SEC; size exclusion chromatography of AtzH after removal of the his-tag; Superdex preparation grade resin, 130 mL column, 25 mM HEPES, 200 mM NaCl, pH 7.5
[3] = molecular target: T2, AtzEG (Pseudomonas sp. ADP, UniProt Q936X3); test: GDH-coupled ammonia release at […] nm; assay type: biochemical; conditions: substrate made in situ by AtzD from 1 mM cyanuric acid; 0.17 uM enzyme, 25 mM potassium phosphate pH 8.5
T2 construct: gene atzE; AtzE and AtzG co-expressed from pACYCDuet-1 in E. coli BL21(DE3); heterotetramer; with 1-carboxybiuret hydrolase subunit AtzG
T2 sequence (Q936X3 1-457): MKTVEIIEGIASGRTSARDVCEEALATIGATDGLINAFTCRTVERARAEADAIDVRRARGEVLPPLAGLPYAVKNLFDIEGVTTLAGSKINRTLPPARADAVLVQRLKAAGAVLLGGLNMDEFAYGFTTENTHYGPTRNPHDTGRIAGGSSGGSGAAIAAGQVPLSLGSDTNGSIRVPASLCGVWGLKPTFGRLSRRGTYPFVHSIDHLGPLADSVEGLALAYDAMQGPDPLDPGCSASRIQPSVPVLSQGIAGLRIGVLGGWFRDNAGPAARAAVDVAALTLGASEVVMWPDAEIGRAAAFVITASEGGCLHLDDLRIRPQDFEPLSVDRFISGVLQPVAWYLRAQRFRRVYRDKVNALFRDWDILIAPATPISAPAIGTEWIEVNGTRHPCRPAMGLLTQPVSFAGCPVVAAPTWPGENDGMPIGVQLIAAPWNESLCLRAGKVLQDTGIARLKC
T2 sequence (A0A384E126 1-68 partner): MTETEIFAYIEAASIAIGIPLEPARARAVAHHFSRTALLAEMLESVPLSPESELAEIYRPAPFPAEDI

O=c1[nH]c(=O)[nH]c(=O)[nH]1 [cyanuric acid, 1,3,5-triazine-2,4,6-triol]
UV absorbance at 214 nm, ring opening [1]: incubating AtzD and its substrate in the presence or absence of AtzH

AtzH from Pseudomonas sp. strain ADP, his-tag removed (enzyme)
stoichiometry N [2]: 2

NC(=O)NC(=O)NC(=O)O [1-carboxybiuret]
GDH-coupled ammonia release at 340 nm [3]: The substrate for AtzEG (1-carboxybiuret) is unstable and was therefore produced in situ
